From PMC6891286, “Towards the Development of an In vivo Chemical Probe for Cyclin G Associated Kinase (GAK)” (Molecules, 2019)
Where two headings read alike, the source gives them in different places.

Legend:
GAK [1] = biological target: T1, GAK (Homo sapiens, UniProt O14976); assay: live cell NanoBRET target engagement assay; assay type: cell-based; details: for IC50: nanoBRET, mean average, n = 2; for IC50 values in cells: live cell NanoBRET assay
T1 sequence (O14976 1-1311): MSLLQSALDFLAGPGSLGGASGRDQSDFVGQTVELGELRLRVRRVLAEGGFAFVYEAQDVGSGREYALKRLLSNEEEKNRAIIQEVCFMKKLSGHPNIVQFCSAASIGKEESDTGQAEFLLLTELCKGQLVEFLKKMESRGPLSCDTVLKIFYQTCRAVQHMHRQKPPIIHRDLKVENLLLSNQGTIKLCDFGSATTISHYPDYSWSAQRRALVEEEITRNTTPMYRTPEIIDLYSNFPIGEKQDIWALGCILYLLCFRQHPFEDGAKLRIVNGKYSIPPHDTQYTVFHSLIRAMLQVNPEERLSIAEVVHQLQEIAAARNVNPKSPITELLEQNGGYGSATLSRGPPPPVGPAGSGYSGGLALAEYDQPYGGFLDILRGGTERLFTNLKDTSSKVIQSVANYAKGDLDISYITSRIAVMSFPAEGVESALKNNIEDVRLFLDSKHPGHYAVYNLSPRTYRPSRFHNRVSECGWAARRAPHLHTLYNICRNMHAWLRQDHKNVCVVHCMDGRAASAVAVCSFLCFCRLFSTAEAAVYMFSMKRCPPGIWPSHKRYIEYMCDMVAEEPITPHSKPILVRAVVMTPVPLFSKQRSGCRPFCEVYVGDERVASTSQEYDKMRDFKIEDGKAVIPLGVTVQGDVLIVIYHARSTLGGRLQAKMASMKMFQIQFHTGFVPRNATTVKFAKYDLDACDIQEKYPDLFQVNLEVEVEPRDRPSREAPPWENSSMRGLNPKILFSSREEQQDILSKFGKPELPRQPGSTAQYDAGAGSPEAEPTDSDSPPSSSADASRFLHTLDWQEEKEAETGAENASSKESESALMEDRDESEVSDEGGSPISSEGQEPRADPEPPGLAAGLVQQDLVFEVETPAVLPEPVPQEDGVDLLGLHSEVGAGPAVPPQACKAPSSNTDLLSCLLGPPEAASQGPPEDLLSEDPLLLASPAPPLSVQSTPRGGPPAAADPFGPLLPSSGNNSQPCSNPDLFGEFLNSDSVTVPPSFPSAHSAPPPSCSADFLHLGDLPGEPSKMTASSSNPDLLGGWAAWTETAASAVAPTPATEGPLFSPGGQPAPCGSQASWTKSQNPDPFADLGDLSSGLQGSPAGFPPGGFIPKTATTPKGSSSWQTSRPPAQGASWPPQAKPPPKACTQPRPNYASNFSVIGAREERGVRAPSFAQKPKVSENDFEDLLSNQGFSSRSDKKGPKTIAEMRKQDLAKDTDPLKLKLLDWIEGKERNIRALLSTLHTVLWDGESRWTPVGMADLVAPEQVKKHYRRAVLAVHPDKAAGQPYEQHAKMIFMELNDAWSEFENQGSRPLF

AAK1 = AAK1 (Homo sapiens, UniProt Q2M2I8); assay: NAK family TR-FRET binding displacement assay; details: NAK family FRET screening
GAK [2] = biological target: T1, GAK; assay: TR-FRET ligand-binding displacement assay
STK16 = STK16 (Homo sapiens, UniProt O75716); assay: NAK family TR-FRET binding displacement assay
[3] = metabolite identification in mouse liver microsomes
Description: After centrifugation, the supernatant was subjected to analysis by LCMS, and structures of metabolites were assigned on the basis of their molecular weight and fragmentation pattern.
Compounds were incubated at a concentration of 10 µM with mouse liver microsomes in the presence of an excess of NADPH.
1.1. General Numbering of Metabolites
The metabolites are numbered according to their retention times in the gradient LC-MS analysis in positive […]
ion mode. […] The M number increases […]
consecutively for metabolites with increasing retention time.
To avoid confusion, labelled retention times of a metabolite peak in different injections are the same, which may lead to mismatch between labelled retention time and actual retention time.
General Strategy for Metabolite Identification
The vehicle control and study samples were injected into LC-MS with gradient elution using a Q1 scan method. Searching for potential metabolites was then performed using LightSight software (Applied Biosystems/MDS Sciex) by comparing a total ion current chromatogram of Q1 scan from a study sample with a chromatogram from the corresponding vehicle control sample. The study sample was then injected again to obtain the product ion spectra of potential metabolites using product ion scan methods. The fragmentation patterns of the potential metabolites were then compared to the fragmentation of the parent compound to elucidate the structures of the metabolites.
The assignment of fragments is shown
2.2. Identification of Metabolites in Mouse Liver Microsomal Incubation

BMP2K = BMP2K (Homo sapiens, UniProt Q9NSY1); assay: NAK family TR-FRET binding displacement assay
[4] = mouse liver microsome metabolic stability; details: for T1/2 Ratio (+) ABT / T1/2 Ratio (−) ABT / T1/2 Ratio / CLint scaled / half-life: mouse liver microsomes; for T1/2 Ratio (+) ABT / T1/2 Ratio (−) ABT: normalized to propranolol; for T1/2 Ratio: normalization with respect to internal control (propranolol); for CLint scaled / half-life: mouse; for half-life / T1/2: mean average, n = 2
Description: SGC-GAK-1 (1) was incubated with MLMs in the presence or absence of added NADPH, and the compound was quantified at various time points over an hour.
The metabolic stability of the 4-anilinoquinolines (8–13) were evaluated in MLMs (Table 1). Half-lives for metabolic clearance were normalized to propranolol in each experimental run to control for variations in the MLM preparations.

Kinetic Solubility = assay type: physicochemical; details: PBS pH7.4 (100 µM)
[5] = TR-FRET assay, read-out: Biochemical GAK Ki
[6] = NAK family FRET screening, read-out: Binding displacement assay STK16 Ki
[7] = Clint (mL/min/kg) (+) ABT, (+) ABT
[8] = Clint (mL/min/kg) (−) ABT, (−) ABT
[9] = T1/2 (min), mouse liver microsomes with NADPH
[10] = pH 7.4, aqueous buffer, kinetic from dmso stock, read-out: Kinetic Solubility µM
[11] = pH 7.4, aqueous buffer, kinetic from dmso stock, read-out: Kinetic Solubility µg/mL
[12] = NAK family FRET screening, read-out: Binding displacement assay BMP2K Ki
[13] = mouse liver microsomes with NADPH
[14] = NAK family FRET screening, read-out: Binding displacement assay GAK Ki

Chain of STK16 (O75716 whole entry): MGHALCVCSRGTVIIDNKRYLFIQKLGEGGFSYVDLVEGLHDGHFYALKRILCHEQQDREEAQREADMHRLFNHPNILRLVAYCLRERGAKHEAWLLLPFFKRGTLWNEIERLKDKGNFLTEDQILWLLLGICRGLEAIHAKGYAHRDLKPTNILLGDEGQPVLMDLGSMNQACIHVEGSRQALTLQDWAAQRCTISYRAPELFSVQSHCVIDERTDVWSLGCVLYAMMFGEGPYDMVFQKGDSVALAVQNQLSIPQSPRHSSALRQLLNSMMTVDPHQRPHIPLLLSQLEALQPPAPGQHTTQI
Chain of BMP2K (Q9NSY1 whole entry): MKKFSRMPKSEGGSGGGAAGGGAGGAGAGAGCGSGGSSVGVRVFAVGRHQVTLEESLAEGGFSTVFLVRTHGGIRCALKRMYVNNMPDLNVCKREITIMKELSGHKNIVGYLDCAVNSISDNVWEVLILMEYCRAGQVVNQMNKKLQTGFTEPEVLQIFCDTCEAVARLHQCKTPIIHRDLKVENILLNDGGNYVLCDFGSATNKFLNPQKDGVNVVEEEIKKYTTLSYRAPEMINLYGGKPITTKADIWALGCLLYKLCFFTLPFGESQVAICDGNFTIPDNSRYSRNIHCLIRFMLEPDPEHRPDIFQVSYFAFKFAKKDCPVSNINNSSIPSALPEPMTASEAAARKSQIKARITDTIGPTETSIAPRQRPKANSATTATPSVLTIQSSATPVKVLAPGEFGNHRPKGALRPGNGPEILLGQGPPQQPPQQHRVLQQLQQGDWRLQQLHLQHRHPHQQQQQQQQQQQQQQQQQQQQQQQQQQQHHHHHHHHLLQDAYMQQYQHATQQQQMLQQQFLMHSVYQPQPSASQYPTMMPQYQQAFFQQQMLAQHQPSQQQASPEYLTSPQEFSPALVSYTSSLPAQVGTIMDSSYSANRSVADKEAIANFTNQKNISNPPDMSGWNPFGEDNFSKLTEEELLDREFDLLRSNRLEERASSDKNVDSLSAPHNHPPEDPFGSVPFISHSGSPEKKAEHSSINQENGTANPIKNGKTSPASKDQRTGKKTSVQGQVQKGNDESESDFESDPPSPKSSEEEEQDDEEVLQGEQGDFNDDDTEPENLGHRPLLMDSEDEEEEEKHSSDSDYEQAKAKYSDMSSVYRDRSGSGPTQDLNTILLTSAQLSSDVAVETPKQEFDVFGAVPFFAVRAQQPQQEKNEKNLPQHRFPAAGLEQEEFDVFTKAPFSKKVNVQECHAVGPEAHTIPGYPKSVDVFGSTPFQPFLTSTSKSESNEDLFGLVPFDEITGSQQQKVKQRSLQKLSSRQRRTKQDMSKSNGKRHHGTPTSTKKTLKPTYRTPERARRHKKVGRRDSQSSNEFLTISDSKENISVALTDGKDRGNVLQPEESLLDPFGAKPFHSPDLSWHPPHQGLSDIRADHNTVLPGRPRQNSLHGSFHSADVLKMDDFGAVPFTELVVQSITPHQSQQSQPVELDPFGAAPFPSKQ
Chain of AAK1 (Q2M2I8 whole entry): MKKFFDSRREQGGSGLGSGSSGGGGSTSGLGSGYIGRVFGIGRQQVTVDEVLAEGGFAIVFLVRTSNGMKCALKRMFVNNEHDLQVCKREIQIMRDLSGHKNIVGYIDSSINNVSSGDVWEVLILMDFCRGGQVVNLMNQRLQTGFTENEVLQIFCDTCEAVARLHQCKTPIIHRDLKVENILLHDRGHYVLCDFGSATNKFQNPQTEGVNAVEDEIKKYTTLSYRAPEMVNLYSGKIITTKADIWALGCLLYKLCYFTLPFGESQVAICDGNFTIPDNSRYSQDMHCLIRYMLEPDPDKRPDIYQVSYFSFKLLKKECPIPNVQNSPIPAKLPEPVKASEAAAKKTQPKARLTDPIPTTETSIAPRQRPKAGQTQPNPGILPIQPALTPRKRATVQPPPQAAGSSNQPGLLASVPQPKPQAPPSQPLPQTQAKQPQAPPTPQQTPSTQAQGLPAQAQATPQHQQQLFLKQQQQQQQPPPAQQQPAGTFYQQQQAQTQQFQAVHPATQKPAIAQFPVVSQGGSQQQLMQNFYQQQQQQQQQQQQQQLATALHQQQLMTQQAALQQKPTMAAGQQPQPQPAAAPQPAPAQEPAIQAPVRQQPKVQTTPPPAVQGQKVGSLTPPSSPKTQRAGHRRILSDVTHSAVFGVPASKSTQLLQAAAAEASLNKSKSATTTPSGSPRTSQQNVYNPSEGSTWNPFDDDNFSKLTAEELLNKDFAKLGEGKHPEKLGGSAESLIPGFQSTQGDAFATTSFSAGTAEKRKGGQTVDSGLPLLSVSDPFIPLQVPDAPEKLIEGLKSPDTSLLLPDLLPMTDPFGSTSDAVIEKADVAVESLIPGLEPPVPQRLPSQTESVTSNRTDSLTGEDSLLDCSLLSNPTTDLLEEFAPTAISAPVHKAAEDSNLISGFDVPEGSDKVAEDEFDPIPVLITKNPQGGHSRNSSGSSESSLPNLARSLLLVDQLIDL

Compound | IC50 (GAK [1]) | Ki (AAK1) | Ki (GAK [2]; [5]) | Ki (STK16; [6]) | Ki (BMP2K) | T1/2 Ratio [4] | half-life [4, 9] | solubility kinetic (Kinetic Solubility; [10]) | solubility kinetic (Kinetic Solubility; [11]) | IC50 values in cells (GAK [1]) | further results
Brc1ccc2nccc(Nc3cccc4c3OCO4)c2c1 [Compound 9, N-(Benzo[d][1,3]dioxol-4-yl)-6-bromoquinolin-4-amine] | 0.022 µM | > 100 µM | 0.0019 µM | > 100 µM | > 100 µM | 1.9 | 8.9 min | 7.3 µM | 2.5 µg/mL | – | Primary Metabolism Site [3]: Aniline; Primary Metabolite Mass [3]: Parent + O; T1/2 Ratio (+) ABT ([4]; (+) ABT): 0.13; T1/2 Ratio (−) ABT ([4]; (−) ABT): 0.05; CLint scaled [4, 7]: 188 L/h/kg; CLint scaled [4, 8]: 457 L/h/kg; half-life ([4]; T1/2 (min) (+) ABT, (+) ABT): 1.8 min; half-life ([4]; T1/2 (min) (−) ABT, (−) ABT): 0.74 min
Fc1ccc(F)c(Nc2ccnc3ccc(Br)cc23)c1 [Compound 10, 6-Bromo-N-(2,5-difluorophenyl)quinolin-4-amine] | 0.87 µM | 3.8 µM | 0.015 µM | 6.2 µM | 9.8 µM | 0.17 | 1.7 min | 2.2 µM | 0.7 µg/mL | – | Primary Metabolism Site [3]: Aniline; Primary Metabolite Mass [3]: Parent + O
COc1cc(Nc2ccnc3ccc(C(F)(F)F)cc23)cc(OC)c1OC [Compound 13] | – | 54 µM | – | 17 µM | – | – | – | – | – | – | Primary Metabolism Site [3]: Aniline; Primary Metabolite Mass [3]: Parent + O; Ki (BMP2K; [12]): > 100 µM; T1/2 [4, 13]: 6.4 min
Fc1ccc2c(c1Nc1ccnc3ccc(Br)cc13)OCO2 [Compound 14, 6-Bromo-N-(5-fluorobenzo[d][1,3]dioxol-4-yl)quinolin-4-amine] | 0.12 µM | 9.7 µM | 0.0014 µM | 20 µM | 16 µM | 0.27 | 1.8 min | 8.8 µM | 3.2 µg/mL | – | T1/2 Ratio (+) ABT ([4]; (+) ABT): 0.18; T1/2 Ratio (−) ABT ([4]; (−) ABT): 0.05; CLint scaled [4, 7]: 137 L/h/kg; CLint scaled [4, 8]: 453 L/h/kg; half-life ([4]; T1/2 (min) (+) ABT, (+) ABT): 2.5 min; half-life ([4]; T1/2 (min) (−) ABT, (−) ABT): 0.74 min
Brc1ccc2nccc(Nc3cccc4cnoc34)c2c1 [Compound 21, N-(6-Bromoquinolin-4-yl)benzo[d]isoxazol-7-amine] | 1.4 µM | 4.6 µM | 0.037 µM | 7.6 µM | 12 µM | 0.64 | 5.2 min | 24.9 µM | 8.5 µg/mL | – | –
Brc1ccc2nccc(Nc3ccc4[nH]ncc4c3)c2c1 [Compound 37, 6-Bromo-N-(1H-indazol-5-yl)quinolin-4-amine] | > 5 µM | 0.52 µM | 0.047 µM | 5.7 µM | 0.66 µM | 0.92 | 7.5 min | 12.3 µM | 4.2 µg/mL | – | –
N-(1H-Indazol-4-yl)-6-(trifluoromethyl)quinolin-4-amine [Compound 33] | > 5 µM | 4.6 µM | 0.72 µM | 11 µM | – | 0.90 | – | – | – | – | Ki (BMP2K; [12]): 16 µM; T1/2 [4, 13]: 5.9 min; Kinetic Solubility µg/mL (Kinetic Solubility): 8.2 µg/mL; solubility kinetic (Kinetic Solubility; read-out: Kinetic Solubility µM): 24.2 µM

The next lines start with results.

IC50 (GAK [1]) | Ki (AAK1) | Ki (GAK [2]; [5]) | Ki (STK16; [6]) | Ki (BMP2K) | T1/2 Ratio [4] | half-life [4, 9] | solubility kinetic (Kinetic Solubility; [10]) | solubility kinetic (Kinetic Solubility; [11]) | IC50 values in cells (GAK [1]) | Compound | further results
> 5 µM | 4.6 µM | 0.019 µM | – | 15 µM | 0.17 | 1.4 min | 3.6 µM | 1.2 µg/mL | – | Brc1ccc2nccc(Nc3cccc4oncc34)c2c1 [Compound 22, N-(6-Bromoquinolin-4-yl)benzo[d]isoxazol-4-amine] | Ki (STK16): 15 µM
0.34 µM | > 100 µM | – | > 100 µM | > 100 µM | 0.21 | 1.7 min | 25.9 µM | 8.8 µg/mL | submicromolar | Brc1ccc2nccc(Nc3cccc4ncoc34)c2c1 [Compound 23, N-(6-Bromoquinolin-4-yl)benzo[d]oxazol-7-amine] | Ki (GAK [2]; [14]): 0.011 µM
0.22 µM | 2.6 µM | – | – | 7.9 µM | 0.68 | 5.3 min | 8.6 µM | 3.1 µg/mL | submicromolar | Brc1ccc2nccc(Nc3cccc4ncsc34)c2c1 [Compound 24, N-(6-Bromoquinolin-4-yl)benzo[d]thiazol-7-amine] | Ki (GAK [2]; [14]): 0.0041 µM; Ki (STK16): 7.8 µM
> 5 µM | 1.2 µM | 0.026 µM | > 100 µM | > 100 µM | 0.32 | 2.6 min | 1.1 µM | 0.4 µg/mL | – | Brc1ccc2nccc(Nc3cccc4scnc34)c2c1 [Compound 25, N-(6-Bromoquinolin-4-yl)benzo[d]thiazol-4-amine] | –
0.4 µM | 2 µM | 0.0053 µM | 22 µM | 4.3 µM | 0.20 | 1.6 min | 1.7 µM | 0.6 µg/mL | submicromolar | Brc1ccc2nccc(Nc3cccc4nsnc34)c2c1 [Compound 29, N-(6-Bromoquinolin-4-yl)benzo[c][1,2,5]thiadiazol-4-amine] | –
0.76 µM | 4.6 µM | 0.014 µM | 19 µM | 7.4 µM | 0.32 | 2.5 min | 5.1 µM | 1.7 µg/mL | submicromolar | Brc1ccc2nccc(Nc3cccc4[nH]ncc34)c2c1 [Compound 32, 6-Bromo-N-(1H-indazol-4-yl)quinolin-4-amine] | –
